Results from patent publication US8178523B2, “Compounds for the treatment of hepatitis C” (Bristol-Myers Squibb Company, priority 2008, dated 2012).

Experiments:
HCV NS5B RdRp = target: T1, HCV NS5B RdRp (Hepatitis C virus genotype 1b, UniProt Q9WMX2); assay: HCV NS5B RdRp enzyme assay; format: biochemical; settings: HCV NS5B genotype 1b; standard or modified RdRp assay not given; numeric values
T1 construct: The protein was expressed with an 18 amino acid C-terminal truncation to enhance the solubility; made in house; host or cells: E. coli BL21(DE3)
T1 sequence (Q9WMX2 2420-2992): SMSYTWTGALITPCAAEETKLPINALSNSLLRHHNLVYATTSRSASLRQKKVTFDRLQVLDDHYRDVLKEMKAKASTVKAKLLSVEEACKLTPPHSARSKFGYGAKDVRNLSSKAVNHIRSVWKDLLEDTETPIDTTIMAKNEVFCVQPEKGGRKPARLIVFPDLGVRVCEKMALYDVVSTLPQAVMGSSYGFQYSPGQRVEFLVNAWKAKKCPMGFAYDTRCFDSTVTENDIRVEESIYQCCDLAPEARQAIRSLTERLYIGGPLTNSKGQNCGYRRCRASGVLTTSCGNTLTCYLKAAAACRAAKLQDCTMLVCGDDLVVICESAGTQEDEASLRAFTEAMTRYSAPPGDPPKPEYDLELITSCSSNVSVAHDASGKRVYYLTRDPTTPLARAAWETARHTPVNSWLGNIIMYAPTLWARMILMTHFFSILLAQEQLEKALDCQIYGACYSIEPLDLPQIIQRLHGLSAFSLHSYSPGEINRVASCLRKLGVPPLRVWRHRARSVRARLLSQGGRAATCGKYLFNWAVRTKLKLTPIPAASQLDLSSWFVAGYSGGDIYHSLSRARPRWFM
Protocol: HCV NS5B RdRp cloning, expression, and purification. The cDNA encoding the NS5B protein of HCV, genotype 1b, was cloned into the pET21a expression vector. The protein was expressed with an 18 amino acid C-terminal truncation to enhance the solubility. The E. coli competent cell line BL21(DE3) was used for expression of the protein. Cultures were grown at 37° C. for ˜4 hours until the cultures reached an optical density of 2.0 at 600 nm. The cultures were cooled to 20° C. and induced with 1 mM […]. Fresh ampicillin was added to a final concentration of 50 μg/ml and the cells were grown overnight at 20° C.
Cell pellets (3 L) were lysed for purification to yield 15-24 mgs of purified NS5B. The lysis buffer consisted of 20 mM Tris-HCl, pH 7.4, 500 mM NaCl, 0.5% triton X-100, 1 mM DTT, 1 mM EDTA, 20% glycerol, 0.5 mg/ml lysozyme, 10 mM MgCl2, 15 ug/ml deoxyribonuclease I, and Complete TM protease inhibitor tablets (Roche). After addition of the lysis buffer, frozen cell pellets were resuspended using a tissue homogenizer. To reduce the viscosity of the sample, aliquots of the lysate were sonicated on ice using a microtip attached to a Branson sonicator. The sonicated lysate was centrifuged at 100,000×g for 1 hr at 4° C. and filtered through a 0.2 μm filter unit (Corning).
The protein was purified using two sequential chromatography steps: Heparin sepharose CL-6B and polyU sepharose 4B (Pharmacia). The chromatography buffers were identical to the lysis buffer but contained no lysozyme, deoxyribonuclease I, MgCl2 or protease inhibitor and the NaCl concentration of the buffer was adjusted according to the requirements for charging the protein onto the column. Each column was eluted with a NaCl gradient which varied in length from 5-50 column volumes depending on the column type. After the final chromatography step, the resulting purity of the enzyme is >90% based on SDS-PAGE analysis. The enzyme was aliquoted and stored at −80° C.
Standard HCV NS5B RdRp enzyme assay. HCV RdRp genotype 1b assays were run in a final volume of 60 μl in 96 well plates (Corning 3600). The assay buffer is composed of 20 mM Hepes, pH 7.5, 2.5 mM KCl, 2.5 mM MgCl2, 1 mM DTT, 1.6 U RNAse inhibitor (Promega N2515), 0.01 mg/ml BSA (Sigma B6917), and 2% glycerol. All compounds were serially diluted (3-fold) in DMSO and diluted further in water such that the final concentration of DMSO in the assay was 2%. HCV RdRp genotype 1b enzyme was used at a final concentration of 28 nM. A polyA template was used at 6 nM, and a biotinylated oligo-dT12 primer was used at 180 nM final concentration. Template was obtained commercially (Amersham 27-4110). Biotinylated primer was prepared by Sigma Genosys. 3H-UTP was used at (0.29 μM total UTP). Reactions were initiated by the addition of enzyme, incubated at 30° C. for 60 min, and stopped by adding 25 μl of 50 mM EDTA containing SPA beads (4 μg/μl, Amersham RPNQ 0007). Plates were read on a Packard Top Count NXT after >1 hr incubation at room temperature.
Modified HCV NS5B RdRp enzyme assay. A modified enzyme assay was performed essentially as described for the standard enzyme assay except for the following: The biotinylated oligo dT12 primer was precaptured on streptavidin-coated SPA beads by mixing primer and beads in assay buffer and incubating at room temperature for one hour. Unbound primer was removed after centrifugation. The primer-bound beads were resuspended in 20 mM Hepes buffer, pH 7.5 and used in the assay at final concentrations of 20 nM primer and […] beads. Order of addition in the assay: enzyme (1.75 nM) was added to diluted compound followed by the addition of a mixture of template (0.36 nM), 3H-UTP (0.6 μCi, 0.29 μM), and primer-bound beads, to initiate the reaction; concentrations given are final. Reactions were allowed to proceed for 4 hours at 30° C.
IC50 values for compounds were determined using seven different [I]. […]

HCV replicon cells = assay: HCV replicon FRET / luciferase assay; format: cell-based; settings: Hepatitis C virus, 50% reduction in FRET or luciferase activity, numeric values
Protocol: FRET Assay Preparation. The HCV FRET screening assay was performed in 96-well cell culture plates. The FRET peptide (Anaspec, Inc.) (Taliani et al., Anal. Biochem. 1996, 240, 60-67) contains a fluorescence donor, EDANS, near one end of the peptide and an acceptor, DABCYL, near the other end. The fluorescence of the peptide is quenched by […] resonance energy transfer (RET) between the donor and the acceptor, but as the NS3 protease cleaves the peptide the products are released from RET quenching and the fluorescence of the donor becomes apparent. The assay reagent was made as follows: 5× cell Luciferase cell culture lysis reagent from Promega (#E153A) diluted to 1× with dH2O, NaCl added to 150 mM final, the FRET peptide diluted to 20 μM final from a 2 mM stock.
To prepare plates, HCV replicon cells, with or without a Renilla luciferase reporter gene, were trypsinized and plated in a 96-well plate with titrated test compounds added in columns 3 through 12; columns 1 and 2 contained a control compound (HCV control inhibitor), and the bottom row contained cells with DMSO only. The plates were then placed in a CO2 incubator at 37° C.
Assays. Subsequent to addition of the test compounds described above (FRET Assay Preparation), at various times the plate was removed and Alamar blue solution (Trek Diagnostics, #00-100) was added to measure cellular toxicity. After reading in a Cytoflour 4000 instrument (PE Biosystems), plates were rinsed with PBS and then used for FRET assay by the addition of 30 ul of the FRET peptide assay reagent described above (FRET Assay Preparation) per well. The plate was then placed into the Cytoflour 4000 instrument which had been set to 340 excite/490 emission, automatic mode for up to 20 cycles and the plate read in a kinetic mode. Typically, the signal to noise using an endpoint analysis after the reads was at least three-fold. Alternatively, after Alamar blue reading, plates were rinsed with PBS, then used for luciferase assay using the Promega Dual-Glo Luciferase Assay System or the Promega EnduRen Live Cell Substrate assay.
Compound analysis was performed by quantification of the relative HCV replicon inhibition and the relative cytotoxicity values. To calculate cytoxicity values, the average Alamar Blue fluorescence signals from the control wells were set as 100% non-toxic. The individual signals in each of the compound test wells were then divided by the average control signal and multiplied by 100% to determine […]. To calculate the HCV replicon inhibition values, an average background value was obtained from the two wells containing the highest amount of HCV control inhibitor at the end of the assay period. These numbers were similar to those obtained from naïve Huh-7 cells. The background numbers were then subtracted from the average signal obtained from the control wells and this number was used as 100% activity. The individual signals in each of the compound test wells were then divided by the averaged control values after background subtraction and multiplied by 100% to determine percent activity. EC50 values were calculated as the concentration which caused a 50% reduction in FRET or luciferase activity. The two numbers generated for the compound plate, percent cytoxicity and percent activity, were used to determine compounds of interest for further analysis.

Structure (SMILES) | IC50 (HCV NS5B RdRp) | EC50 (HCV replicon cells)
COc1ccc2c(c1)C1CC1(C(=O)N1CCCCC1c1nccs1)Cn1c-2c(C2CCCCC2)c2ccc(C(=O)NS(=O)(=O)N(C)C)cc21 (stereo not drawn) | 0.07 µM | 0.29 µM
COc1ccc2c(c1)C=C(C(=O)N1CCCCC1c1nccs1)Cn1c-2c(C2CCCCC2)c2ccc(C(=O)NS(=O)(=O)N(C)C)cc21 (stereo not drawn) | 0.1 µM | 0.46 µM
COc1ccc2c(c1)[C@@H]1C[C@]1(C(=O)N1CCC(c3nnc(C)o3)CC1)Cn1c-2c(C2CCCCC2)c2ccc(C(=O)NS(=O)(=O)N(C)C)cc21 | 0.03 µM | 0.03 µM
